The record followed here is ChEMBL document CHEMBL4725320 (Bioorg Med Chem Lett, 2020).

Test [1] has as its target T1, Nuclear receptor subfamily 1 group D member 1 (Homo sapiens, UniProt P20393).
T1 sequence (P20393 whole entry): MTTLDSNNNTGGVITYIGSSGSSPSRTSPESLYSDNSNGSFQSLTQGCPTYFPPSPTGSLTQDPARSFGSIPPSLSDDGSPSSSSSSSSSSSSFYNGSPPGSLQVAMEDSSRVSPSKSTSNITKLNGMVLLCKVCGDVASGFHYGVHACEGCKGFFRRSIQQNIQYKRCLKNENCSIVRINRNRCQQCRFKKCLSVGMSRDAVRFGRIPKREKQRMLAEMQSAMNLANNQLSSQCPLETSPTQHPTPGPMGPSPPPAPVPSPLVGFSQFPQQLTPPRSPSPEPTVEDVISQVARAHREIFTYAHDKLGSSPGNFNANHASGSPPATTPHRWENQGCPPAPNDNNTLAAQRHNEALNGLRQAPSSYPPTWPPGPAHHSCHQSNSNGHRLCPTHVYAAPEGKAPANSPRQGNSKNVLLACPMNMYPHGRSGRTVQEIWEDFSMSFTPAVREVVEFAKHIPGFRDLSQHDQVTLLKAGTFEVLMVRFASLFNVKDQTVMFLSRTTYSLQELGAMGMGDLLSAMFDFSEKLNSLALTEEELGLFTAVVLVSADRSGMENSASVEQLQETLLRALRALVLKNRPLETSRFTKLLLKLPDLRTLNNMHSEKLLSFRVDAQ
The test can be described thus: Agonist activity at Rev-Erb alpha (unknown origin) by BMAL1-luciferase reporter assay. Background: In a reporter assay the amount or activity of a reporter protein is the signal.

For test [2], the target named is Nuclear receptor subfamily 1 group D member 2 (Homo sapiens) (UniProt Q14995). Kind of test: Antagonist activity at Rev-Erb beta (unknown origin) by RORE-luciferase reporter assay.
Test [3] deals with T1, Nuclear receptor subfamily 1 group D member 1. The test can be described thus: Antagonist activity at Rev-Erb alpha (unknown origin) by BMAL1-luciferase reporter assay.
Test [4] shares this target. Kind of test: Agonist activity at Rev-Erb alpha (unknown origin) by FRET assay. The class given is single protein.
Test [5] shares this target. Kind of test: Inverse agonist activity at Rev-Erb alpha LBD (unknown origin) by FRET assay.

Nuclear receptor subfamily 1 group D member 2 (Homo sapiens), sequence (Q14995 whole entry, looked up): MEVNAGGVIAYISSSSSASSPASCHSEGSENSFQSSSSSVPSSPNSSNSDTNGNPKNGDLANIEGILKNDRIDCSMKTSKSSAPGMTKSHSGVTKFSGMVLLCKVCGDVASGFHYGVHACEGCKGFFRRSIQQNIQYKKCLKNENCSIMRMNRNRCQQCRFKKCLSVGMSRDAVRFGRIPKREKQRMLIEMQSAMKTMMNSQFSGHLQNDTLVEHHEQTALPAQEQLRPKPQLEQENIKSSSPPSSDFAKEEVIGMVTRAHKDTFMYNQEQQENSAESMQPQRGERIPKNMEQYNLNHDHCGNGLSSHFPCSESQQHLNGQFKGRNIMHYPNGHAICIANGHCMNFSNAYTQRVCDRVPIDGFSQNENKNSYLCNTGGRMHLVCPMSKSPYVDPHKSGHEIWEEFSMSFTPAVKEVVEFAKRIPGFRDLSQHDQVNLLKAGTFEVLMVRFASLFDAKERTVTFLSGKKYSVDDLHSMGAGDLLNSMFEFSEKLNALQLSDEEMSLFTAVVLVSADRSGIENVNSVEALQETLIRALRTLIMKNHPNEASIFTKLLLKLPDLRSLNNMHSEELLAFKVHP

On to `O=C(c1cccc2ccccc12)N1Cc2ccccc2CC1CNCc1ccccc1` (stereo not given), for which a half-maximal effect in test [1] (EC50) was put at 3000 nM. Regarding `CN1CCN(Cc2cc(CNC3(c4ccccc4F)CCCC3)ccc2O)CC1`, in test [2], the midpoint of the response, the EC50, lay at 30000 nM. Turning to `O=C(Nc1ccccc1)N1CCC(CN(Cc2ccc(Cl)cc2)Cc2ccc([N+](=O)[O-])s2)CC1`, the EC50 (usually the concentration giving half of the maximal effect) in test [3] came to 1300 nM. Turning to `FC(F)(F)c1ccc(-c2cncnc2)c(Oc2ccc3nnc(Cl)n3n2)c1`, in test [4], the EC50 was < 5000 nM. On the same count and under the same terms, the figure for `Cc1cc(F)ccc1-c1ccc(C(F)(F)F)cc1Oc1nn(C)c(=O)c2ccsc12` is 1130 nM; for `FC(F)(F)c1ccc(-c2ccc3ncc(Cl)n3c2)c(Oc2nn3ccnc3c3ccsc23)c1` it is 5510 nM. Turning to `CCOC(=O)C1Cc2ccccc2CN1C(=O)c1ccc(SC)s1` (stereo not given), the EC50 in test [3] amounted to 470 nM.

With `FC(F)(F)c1ccc(-c2cccnc2)c(Oc2ccc3nnc(Cl)n3n2)c1`, the EC50 in test [4] was < 1000 nM.

`Cc1cc(Cl)cc(CN(Cc2ccc(Cl)cc2)Cc2ccc([N+](=O)[O-])s2)c1`: the results for the EC50 in test [4] and in test [3] were 50 nM and 2050 nM, respectively. Turning to `COCCNc1oc(-c2ccc(N(C)Cc3ccc(Cl)cc3)cc2)nc1C#N`, it took 150 nM to reach a half-maximal effect in test [5] (EC50). Take `CC(C)(C)Oc1ccc(OC[C@@H]2Cc3cc(F)ccc3CN2C(=O)c2cccc3ccccc23)cc1`: in test [4], the half-maximal effective concentration (EC50) was found to be 68 nM. For `Cn1nc(Oc2cc(C(F)(F)F)ccc2-c2ccsc2Cl)c2sccc2c1=O`, in test [4], the EC50 turned out to be 520 nM.

Turning to `CCOC(=O)C1Cc2ccccc2CN1C(=O)c1ccc(C)o1` (stereo not given), a half-maximal effect in test [3] (EC50) was put at 1300 nM. Compound `CCCCCNC(=O)N1CCC(CN(Cc2ccc(Cl)cc2)Cc2ccc([N+](=O)[O-])s2)C1` (stereo not given) [SR9011] showed an EC50 in test [4] of 710 nM.
